Results on nine compounds are retold here after ChEMBL document CHEMBL3045206, “A facile synthesis of novel herbicidal 1-phenyl-piperazine-2,6-diones” (2005).

The structures appear in SMILES notation.

What all share (format): functional
The test system of one experiment is Tagetes. In words: Herbicidal activity against Tagetes (marigold) plant at 1200 g/ha applied as spray during post-emergence after 2 weeks under green house conditions.
The subject of the next experiment is Solanum lycopersicum. Nature of the experiment: Herbicidal activity against Solanum lycopersicum (tomato) plant at 1200 g/ha applied as spray during post-emergence after 2 weeks under green house conditions.
The next experiment concerns Abutilon theophrasti. Nature of the experiment: Herbicidal activity against Abutilon theophrasti (velvetleaf) plant at 1200 g/ha applied as spray during post-emergence after 2 weeks under green house conditions.

As to `O=C1CN2CCCCC2C(=O)N1c1cc(Cl)c(Cl)cc1F` (configuration not stated), the Activity in the experiment on Tagetes was determined as 0%; in the experiment on Solanum lycopersicum, 75%; in the experiment with Abutilon theophrasti, 90%.

Take `O=C1CN2CCCCC2C(=O)N1c1ccc(Cl)cc1F` (configuration not stated): the Activity worked out at 15% in the experiment on Tagetes, 35% with Solanum lycopersicum and 80% in the experiment on Abutilon theophrasti.

On to `COc1cc(N2C(=O)CN3CCCCC3C2=O)c(F)cc1Cl` (configuration not stated), for which the Activity with Tagetes amounted to 0%; in the experiment on Solanum lycopersicum, 15%; in the experiment on Abutilon theophrasti, 50%.

Consider `O=C1CN2CCCCC2C(=O)N1c1cc(OC2CCCC2)c(Cl)cc1F` (configuration not stated), for which the Activity in the experiment with Tagetes turned out to be 10%; in the experiment with Solanum lycopersicum, 60%; with Abutilon theophrasti, 90%.

Consider `O=C1CN2CCCC2C(=O)N1c1cc(OC2CCCC2)c(Cl)cc1F` (configuration not stated), for which the Activity in the experiment with Tagetes stood at 0%; with Solanum lycopersicum it was 0%; in the experiment with Abutilon theophrasti, 50%.

With `C#CCOc1cc(N2C(=O)CN(C)CC2=O)c(F)cc1Cl`, the Activity is on record as 0% in the experiment with Tagetes, 75% in the experiment on Solanum lycopersicum and 95% in the experiment on Abutilon theophrasti.

Turning to `CN1CC(=O)N(c2cc(OC3CCCC3)c(Cl)cc2F)C(=O)C1`, the values for the Activity in the experiment with Tagetes, in the experiment with Solanum lycopersicum and in the experiment with Abutilon theophrasti were 0%, 0% and 75%, respectively.

As to `CC(C)(C)N1CC(=O)N(c2cc(OC3CCCC3)c(Cl)cc2F)C(=O)C1`, the Activity was determined as 0% with Tagetes, 0% with Solanum lycopersicum and 25% in the experiment with Abutilon theophrasti.

Take `CC(C)OC(=O)c1cc(N2C(=O)CN(Cc3ccccc3)CC2=O)c(F)cc1Cl`: the Activity in the experiment with Tagetes turned out to be 0%; with Solanum lycopersicum, 10%; in the experiment on Abutilon theophrasti, 0%.
